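Briefly, cells in 96-well plates were exposed to five compound concentrations for 48 h, and endpoints were estimated by linear interpolation. GI50 = concentration required for 50% inhibition of growth.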 Active and inactive are the calls of the source. Cut-off read from the data, not from the text of the source: active = GI50 up to about 1.1 µM and inactive = higher.
Tests used:
Test in all cases: NCI-60 cell line screen, 48 h
SW-620 = system: SW-620
SNB-75 = system: SNB-75
SNB-19 = system: SNB-19
HCT-116 = system: HCT-116
SNB-78 = system: SNB-78
SK-MEL-5 = system: SK-MEL-5
A498 = system: A498
UO-31 = system: UO-31
COLO 205 = system: COLO 205
NCI-H522 = system: NCI-H522
KM-20L2 = system: KM-20L2
CCRF-CEM = system: CCRF-CEM
SK-OV-3 = system: SK-OV-3
ACHN = system: ACHN
KM12 = system: KM12
HCC 2998 = system: HCC 2998
SK-MEL-28 = system: SK-MEL-28
OVCAR-4 = system: OVCAR-4
A549 = system: A549
SF-268 = system: SF-268
HOP-18 = system: HOP-18
OVCAR-8 = system: OVCAR-8
UACC-257 = system: UACC-257
LXFL 529 = system: LXFL 529
NCI-H226 = system: NCI-H226
DLD-1 = system: DLD-1
LOX IMVI = system: LOX IMVI
Malme-3M = system: Malme-3M
M19-MEL = system: M19-MEL
EKVX = system: EKVX
TK-10 = system: TK-10
M14 = system: M14
UACC-62 = system: UACC-62
RPMI-8226 = system: RPMI-8226
IGROV-1 = system: IGROV-1
HL-60 = system: HL-60
MOLT-4 = system: MOLT-4
DMS-273 = system: DMS-273
786-0 = system: 786-0
HCT-15 = system: HCT-15
SF-295 = system: SF-295
U-251 = system: U-251
SN12C = system: SN12C
OVCAR-3 = system: OVCAR-3
HT-29 = system: HT-29
CAKI-1 = system: CAKI-1
RXF 393 = system: RXF 393
SK-MEL-2 = system: SK-MEL-2
SR = system: SR
NCI-H460 = system: NCI-H460
NCI-H23 = system: NCI-H23
SF-539 = system: SF-539
OVCAR-5 = system: OVCAR-5
HOP-92 = system: HOP-92
K562 = system: K562
DMS-114 = system: DMS-114
HOP-62 = system: HOP-62
XF498 = system: XF498

O=C1c2ccccc2-c2ccccc2C(=O)C1(Br)Br
GI50 (SW-620): 3.8 µM (inactive)
GI50 (SNB-75): 12.9 µM (inactive)
GI50 (SNB-19): 17.7 µM (inactive)
GI50 (HCT-116): 7.73 µM (inactive)
GI50 (SNB-78): 8.11 µM (inactive)
GI50 (SK-MEL-5): 17.3 µM (inactive)
GI50 (A498): 16.6 µM (inactive)
GI50 (UO-31): 14.4 µM (inactive)
GI50 (COLO 205): 8.24 µM (inactive)
GI50 (NCI-H522): 2.15 µM (inactive)
GI50 (KM-20L2): 16.9 µM (inactive)
GI50 (CCRF-CEM): 2.52 µM (inactive)
GI50 (SK-OV-3): 19.5 µM (inactive)
GI50 (ACHN): 11.7 µM (inactive)
GI50 (KM12): 17.7 µM (inactive)
GI50 (HCC 2998): 18.2 µM (inactive)
GI50 (SK-MEL-28): 7.28 µM (inactive)
GI50 (OVCAR-4): 13.7 µM (inactive)
GI50 (A549): 17.7 µM (inactive)
GI50 (SF-268): 14.2 µM (inactive)
GI50 (HOP-18): 13.4 µM (inactive)
GI50 (OVCAR-8): 11 µM (inactive)
GI50 (UACC-257): 10.7 µM (inactive)
GI50 (LXFL 529): 7.96 µM (inactive)
GI50 (NCI-H226): 17.7 µM (inactive)
GI50 (DLD-1): 6.75 µM (inactive)
GI50 (LOX IMVI): 9.27 µM (inactive)
GI50 (Malme-3M): 3.93 µM (inactive)
GI50 (M19-MEL): 8.69 µM (inactive)
GI50 (EKVX): 14.6 µM (inactive)
GI50 (TK-10): 10.6 µM (inactive)
GI50 (M14): 5.33 µM (inactive)
GI50 (UACC-62): 7.36 µM (inactive)
GI50 (RPMI-8226): 1.84 µM (inactive)
GI50 (IGROV-1): 14 µM (inactive)
GI50 (HL-60): 2.15 µM (inactive)
GI50 (MOLT-4): 2.67 µM (inactive)
GI50 (DMS-273): 15.6 µM (inactive)
GI50 (786-0): 13 µM (inactive)
GI50 (HCT-15): 12.4 µM
GI50 (SF-295): 16.1 µM (inactive)
GI50 (U-251): 15.8 µM (inactive)
GI50 (SN12C): 11.8 µM (inactive)
GI50 (OVCAR-3): 14.1 µM (inactive)
GI50 (HT-29): 15.4 µM (inactive)
GI50 (CAKI-1): 5.87 µM (inactive)
GI50 (RXF 393): 3.56 µM (inactive)
GI50 (SK-MEL-2): 9.75 µM (inactive)
GI50 (SR): 2.02 µM (inactive)
GI50 (NCI-H460): 19.1 µM (inactive)
GI50 (NCI-H23): 13.4 µM (inactive)
GI50 (SF-539): 9.51 µM (inactive)
GI50 (OVCAR-5): 18.1 µM (inactive)
GI50 (HOP-92): 3.21 µM (inactive)
GI50 (K562): 4.13 µM (inactive)
GI50 (DMS-114): 15.2 µM (inactive)
GI50 (HOP-62): 18.2 µM (inactive)

O=C1OC2(OC2c2ccccc2)c2ccccc21 (stereo unspecified)
GI50 (SW-620): > 100 µM (inactive)
GI50 (SNB-75): > 100 µM (inactive)
GI50 (SNB-19): > 100 µM (inactive)
GI50 (HCT-116): 5.05 µM (inactive)
GI50 (SK-MEL-5): > 100 µM (inactive)
GI50 (UO-31): > 100 µM (inactive)
GI50 (COLO 205): > 100 µM (inactive)
GI50 (NCI-H522): > 100 µM (inactive)
GI50 (KM-20L2): > 100 µM (inactive)
GI50 (CCRF-CEM): > 100 µM (inactive)
GI50 (SK-OV-3): > 100 µM (inactive)
GI50 (ACHN): > 100 µM (inactive)
GI50 (KM12): > 100 µM (inactive)
GI50 (HCC 2998): > 100 µM (inactive)
GI50 (SK-MEL-28): > 100 µM (inactive)
GI50 (A549): > 100 µM (inactive)
GI50 (SF-268): > 100 µM (inactive)
GI50 (OVCAR-8): > 100 µM (inactive)
GI50 (UACC-257): > 100 µM (inactive)
GI50 (LXFL 529): > 100 µM (inactive)
GI50 (NCI-H226): > 100 µM (inactive)
GI50 (DLD-1): > 100 µM (inactive)
GI50 (LOX IMVI): > 100 µM (inactive)
GI50 (Malme-3M): > 100 µM (inactive)
GI50 (M19-MEL): > 100 µM (inactive)
GI50 (EKVX): > 100 µM (inactive)
GI50 (TK-10): > 100 µM (inactive)
GI50 (M14): > 100 µM (inactive)
GI50 (UACC-62): > 100 µM (inactive)
GI50 (RPMI-8226): > 100 µM (inactive)
GI50 (IGROV-1): > 100 µM (inactive)
GI50 (XF498): > 100 µM (inactive)
GI50 (HL-60): > 100 µM (inactive)
GI50 (MOLT-4): > 100 µM (inactive)
GI50 (DMS-273): > 100 µM (inactive)
GI50 (786-0): > 100 µM (inactive)
GI50 (HCT-15): > 100 µM
GI50 (U-251): > 100 µM (inactive)
GI50 (SN12C): > 100 µM (inactive)
GI50 (OVCAR-3): > 100 µM (inactive)
GI50 (HT-29): > 100 µM (inactive)
GI50 (RXF 393): > 100 µM (inactive)
GI50 (SK-MEL-2): > 100 µM (inactive)
GI50 (SR): > 100 µM (inactive)
GI50 (NCI-H460): > 100 µM (inactive)
GI50 (NCI-H23): > 100 µM (inactive)
GI50 (SF-539): > 100 µM (inactive)
GI50 (OVCAR-5): > 100 µM (inactive)
GI50 (HOP-92): > 100 µM (inactive)
GI50 (K562): > 100 µM (inactive)
GI50 (DMS-114): 1.32 µM (inactive)
GI50 (HOP-62): > 100 µM (inactive)

O=C1OCc2nc3c(c(-c4ccccc4C(F)(F)F)c21)C(=O)OC3
GI50 (SW-620): > 100 µM (inactive)
GI50 (SNB-19): > 100 µM (inactive)
GI50 (HCT-116): > 100 µM (inactive)
GI50 (SNB-78): > 100 µM (inactive)
GI50 (SK-MEL-5): > 100 µM (inactive)
GI50 (A498): > 100 µM (inactive)
GI50 (UO-31): > 100 µM (inactive)
GI50 (COLO 205): > 100 µM (inactive)
GI50 (NCI-H522): > 100 µM (inactive)
GI50 (KM-20L2): > 100 µM (inactive)
GI50 (CCRF-CEM): > 100 µM (inactive)
GI50 (SK-OV-3): > 100 µM (inactive)
GI50 (ACHN): > 100 µM (inactive)
GI50 (KM12): > 100 µM (inactive)
GI50 (HCC 2998): > 100 µM (inactive)
GI50 (SK-MEL-28): > 100 µM (inactive)
GI50 (A549): > 100 µM (inactive)
GI50 (SF-268): > 100 µM (inactive)
GI50 (HOP-18): > 100 µM (inactive)
GI50 (OVCAR-8): > 100 µM (inactive)
GI50 (UACC-257): > 100 µM (inactive)
GI50 (LXFL 529): > 100 µM (inactive)
GI50 (DLD-1): > 100 µM (inactive)
GI50 (LOX IMVI): > 100 µM (inactive)
GI50 (Malme-3M): > 100 µM (inactive)
GI50 (M19-MEL): > 100 µM (inactive)
GI50 (EKVX): > 100 µM (inactive)
GI50 (TK-10): > 100 µM (inactive)
GI50 (M14): > 100 µM (inactive)
GI50 (UACC-62): > 100 µM (inactive)
GI50 (RPMI-8226): > 100 µM (inactive)
GI50 (IGROV-1): > 100 µM (inactive)
GI50 (HL-60): > 100 µM (inactive)
GI50 (MOLT-4): > 100 µM (inactive)
GI50 (DMS-273): > 100 µM (inactive)
GI50 (786-0): > 100 µM (inactive)
GI50 (HCT-15): > 100 µM
GI50 (SF-295): > 100 µM (inactive)
GI50 (U-251): > 100 µM (inactive)
GI50 (SN12C): > 100 µM (inactive)
GI50 (OVCAR-3): > 100 µM (inactive)
GI50 (RXF 393): > 100 µM (inactive)
GI50 (SK-MEL-2): > 100 µM (inactive)
GI50 (SR): > 100 µM (inactive)
GI50 (NCI-H460): > 100 µM (inactive)
GI50 (NCI-H23): > 100 µM (inactive)
GI50 (SF-539): > 100 µM (inactive)
GI50 (OVCAR-5): > 100 µM (inactive)
GI50 (HOP-92): > 100 µM (inactive)
GI50 (K562): > 100 µM (inactive)
GI50 (DMS-114): > 100 µM (inactive)
GI50 (HOP-62): > 100 µM (inactive)
